The target in one test is T1, glucocorticoid receptor (Rattus norvegicus, UniProt P06536).
T1 construct: glucocorticoid receptor from thymus of adrenalectomized rats; from tissue; host or cells: thymus of adrenalectomized rats
T1 sequence (P06536 1-795): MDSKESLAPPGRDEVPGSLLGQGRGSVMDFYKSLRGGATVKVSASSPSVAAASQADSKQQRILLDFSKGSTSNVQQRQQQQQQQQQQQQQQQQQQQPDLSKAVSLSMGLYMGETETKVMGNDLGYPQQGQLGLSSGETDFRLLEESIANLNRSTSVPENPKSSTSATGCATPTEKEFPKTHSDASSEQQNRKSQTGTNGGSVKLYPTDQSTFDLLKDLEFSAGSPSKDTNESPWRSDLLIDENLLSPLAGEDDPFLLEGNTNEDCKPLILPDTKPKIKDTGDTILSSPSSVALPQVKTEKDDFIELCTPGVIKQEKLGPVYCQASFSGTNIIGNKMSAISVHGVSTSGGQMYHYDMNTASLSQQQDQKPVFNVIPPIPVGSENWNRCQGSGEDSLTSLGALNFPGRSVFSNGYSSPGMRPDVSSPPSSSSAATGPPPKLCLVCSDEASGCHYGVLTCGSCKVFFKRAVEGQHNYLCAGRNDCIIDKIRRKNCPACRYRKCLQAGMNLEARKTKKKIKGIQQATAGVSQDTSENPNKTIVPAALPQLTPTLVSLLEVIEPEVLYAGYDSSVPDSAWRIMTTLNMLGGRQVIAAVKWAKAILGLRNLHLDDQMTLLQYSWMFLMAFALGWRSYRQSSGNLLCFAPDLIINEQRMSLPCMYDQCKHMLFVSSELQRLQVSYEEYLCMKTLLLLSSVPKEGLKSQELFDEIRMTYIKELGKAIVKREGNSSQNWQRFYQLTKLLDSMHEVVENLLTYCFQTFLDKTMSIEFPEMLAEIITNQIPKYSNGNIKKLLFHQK
The test is described as follows: Relative binding affinity to glucocorticoid receptor of thymus (displacement of tritium-labeled dexamethasone). Also on record: species or system rat (adrenalectomized). Conditions: relative to dexamethasone (=100). On the procedure: (§1) The in vitro activity of the subject compounds was determined by measuring the binding affinities (RBA) of these compounds relative to progesterone for the progesterone receptor in the cytosol obtained from estrogen-primedimmature rabbit uterus and by measuring the RBA relative to dexamethasone for the glucocorticoid receptor from thymus of adrenalectomized rats. These assays were carried out by the procedures of J. R. Reel et al., Fertility and Sterility, 31, 552 (1979) (progesterone) and G. P. Chrousos et al., Endocrinology, 107, 472 (1980) (glucocorticoid).
^b Relative ability to displace tritiumlabeled dexamethasone from the
receptor of the thymus of adrenalectomized rats as compared to […]

For test [1], the system named is endometrial response due to subcutaneous administration of progesterone. In words: Anti-McGinty intrauterine antiprogestational test. The test is classed as in vivo, estrogen-primed immature female rabbits. Conditions: intrauterine; for ED50 / ED90 (calculated): from % Inhib = a + b · ln dose. How it is done: The antiprogestational activity of the compounds was studied after both intrauterine and oral administration. In each case the compound was tested for its ability to inhibit the endometrial response due to subcutaneous administration of progesterone to estrogen-primed immature female rabbits. The methodology used for the intrauterine test has been described by D. A. McGinty et al. See Endocrinology, 24, 829 (1939). For oral administration of test compounds, the method used was analogous to that of Clauberg. See Clauberg, Zentr. Gynakol., 54, 2757 (1930) as modified by McPhail J. Physiol. (London), 83, 145 (1935). Each active compound was characterized by a dose-related ability to block the progestational effect of simultaneously administered progesterone. When the percent inhibition was plotted versus the log of the dose, linear relationships were obtained. Linear regression analysis permitted calculation of the ED50 and ED90 values (the doses required for 50% and 90% inhibition of the progesterone effect, respectively). The actual dose which gave 90% or more inhibition is also given, although this value is probably less accurate than the calculated values which are based on the dose-response line. […] Since the intrauterine administration bypasses most of the drug-metabolizing systems of the body, especially the liver, intrinsic activity is expected to correlate reasonably well with binding activity to the receptor, according to currently held hypotheses regarding receptor binding.

Another test has as its target T2, progesterone receptor (Oryctolagus cuniculus, UniProt P06186).
T2 construct: in the cytosol obtained from estrogen-primedimmature rabbit uterus; from tissue; host or cells: uterine cytosol of estrogen-primed immature female rabbits
T2 sequence (P06186 1-930): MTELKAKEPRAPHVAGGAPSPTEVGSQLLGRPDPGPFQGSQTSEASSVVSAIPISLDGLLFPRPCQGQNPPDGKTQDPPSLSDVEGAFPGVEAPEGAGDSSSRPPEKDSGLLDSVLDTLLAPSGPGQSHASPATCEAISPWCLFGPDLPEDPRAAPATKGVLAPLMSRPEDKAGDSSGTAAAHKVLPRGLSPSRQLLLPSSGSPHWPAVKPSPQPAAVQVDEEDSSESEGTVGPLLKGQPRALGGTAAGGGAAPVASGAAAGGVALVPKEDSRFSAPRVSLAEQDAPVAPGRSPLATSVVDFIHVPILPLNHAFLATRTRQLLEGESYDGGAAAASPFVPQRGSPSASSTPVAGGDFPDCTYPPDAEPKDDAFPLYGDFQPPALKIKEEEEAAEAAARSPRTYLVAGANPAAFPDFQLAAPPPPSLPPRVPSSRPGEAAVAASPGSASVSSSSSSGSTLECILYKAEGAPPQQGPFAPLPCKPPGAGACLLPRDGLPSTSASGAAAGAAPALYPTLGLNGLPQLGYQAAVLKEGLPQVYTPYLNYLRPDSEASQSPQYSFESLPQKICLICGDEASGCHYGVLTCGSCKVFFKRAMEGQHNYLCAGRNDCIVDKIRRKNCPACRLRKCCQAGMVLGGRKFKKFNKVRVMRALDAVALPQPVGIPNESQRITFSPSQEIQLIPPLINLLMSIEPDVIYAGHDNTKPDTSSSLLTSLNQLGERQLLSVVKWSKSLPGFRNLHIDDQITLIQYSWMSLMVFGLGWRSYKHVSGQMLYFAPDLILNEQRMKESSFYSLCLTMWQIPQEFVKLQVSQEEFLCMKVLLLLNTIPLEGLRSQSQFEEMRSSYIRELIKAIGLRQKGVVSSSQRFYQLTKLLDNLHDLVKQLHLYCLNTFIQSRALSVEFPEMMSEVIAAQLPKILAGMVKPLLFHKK
The test is described as follows: Relative binding affinity to progesterone receptor in uterine cytosol (displacement of tritium-labeled progesterone). Further details: species or system rabbit (estrogen-primed immature female). Conditions: for P-RBA/G-RBA: ratio of RBA values for progesterone receptor to glucocorticoid receptor; for Progestin RBA: relative to progesterone (=100), rabbit uterine cytosol. How it is done:
as §1
^a Relative ability to displace tritiumlabeled progesterone from the
receptor in uterine cytosol from estrogenprimed immature female rabbits a
compared with progesterone (=100).

Test [2] relates to endometrial proliferation (McPhail Index). In words: Progestational activity, intrauterine (McGinty assay). Particulars: right horn control 0. The format is in vivo, estrogen-primed immature female rabbits. On the procedure: In this assay estrogen-primed immature female rabbits are treated by injection of the test compound into the left horn of the uterus while the right horn is left untreated as a control. Each horn is then scored for endometrial proliferation by the McPhail Index. […] It indicates a possible need for reassessment of the current hypotheses regarding the effect of this substituent on antagonist versus agonist activity.

For test [3] the following is noted: comparison of mefipristone, ZK 98.299 (II), ZK 98.734 (III); cited from earlier work.
Test [4] concerns endometrial response due to subcutaneous administration of progesterone. The test is described as follows: Oral antiprogestational activity (Anti-Clauberg). The test is classed as in vivo, estrogen-primed immature female rabbits. Conditions: total SC progesterone 0.8 mg; for % Inhibition: based on change in McPhail Index; for McPhail Index: scale 0-4; for Wt of Uterus: ± SD. On the procedure: The antiprogestational activity of the compounds was studied after both intrauterine and oral administration. In each case the compound was tested for its ability to inhibit the endometrial response due to subcutaneous administration of progesterone to estrogen-primed immature female rabbits. The methodology used for the intrauterine test has been described by D. A. McGinty et al. See Endocrinology, 24, 829 (1939). For oral administration of test compounds, the method used was analogous to that of Clauberg. See Clauberg, Zentr. Gynakol., 54, 2757 (1930) as modified by McPhail J. Physiol. (London), 83, 145 (1935).

Test [5] concerns estrogen-insensitive T47Dco human breast cancer cells. Particulars: Horwitz 1985; cited from earlier work.
The next test concerns Cushing's syndrome. Conditions: cited from earlier work.
Where [6] appears, read: footnote c: no inhibition at tested dose.
Where [7] appears, read: results variable, data from "best run".

These results are taken from US4954490A, “11 β-substituted progesterone analogs” (Research Triangle Institute, priority 1988, dated 1990).

Broadly, the % Inhibition is how much of the control response was suppressed.

SMILES strings stand for the structures.

`CC[C@@H]1C[C@H]2[C@@H]3CCC4=CC(=O)CCC4=C3[C@@H](c3ccc(N(C)C)cc3)C[C@]2(C)[C@H]1C(C)=O` [Compound 19, 16α-Ethyl-118-(4-N,N-dimethylaminophenyl)-19-norpregna-4,9-diene-3,20-dione]: at glucocorticoid receptor, the “Glucocort. RBA” value was 124. Moreover, in test [1] (setting [6]), the “ED90 (actual dose)” value is less than 80 µg. Also, the P-RBA/G-RBA at progesterone receptor came to 0.65. Moreover, the “Progestin RBA” value on progesterone receptor is given as 80. In addition, the entries for the “McPhail Index, Left Horn (Treated)” value in test [2] (dose 2.0 μg intrauterine), in test [2] (dose 4.0 μg intrauterine) and in test [2] (dose 8.0 μg intrauterine) were 3.0 ± 0.32, 3.7 ± 0.12 and 3.6 ± 0.10, respectively.

With `CN(C)c1ccc(C2CC3(C)C(CCC3(O)CCCO)C3CCC4=CC(=O)CCC4=C23)cc1` (stereo not shown) [ZK 98.299], in test [3], the “antiglucocorticoid activity relative to antigestagenic potency (rank)” value is on record as “intermediate position”.

For `CN(C)c1ccc([C@H]2C[C@@]3(C)[C@@H](CC[C@@]3(O)/C=C\CO)[C@@H]3CCC4=CC(=O)CCC4=C32)cc1` [ZK 98.734], the “antiglucocorticoid activity relative to antigestagenic potency (rank)” value in test [3] was “least active”.

With `CC[C@@H]1C[C@H]2[C@@H]3C[C@H](C)C4=CC(=O)CCC4=C3[C@@H](c3ccc(N(C)C)cc3)C[C@]2(C)[C@H]1C(C)=O` [Compound 15a, 6α-Methyl-16α-ethyl-11β-(4-N,N-dimethylaminophenyl)-19-norpregna-4,9-diene-3,20-dione], the “Glucocort. RBA” value on glucocorticoid receptor turned out to be 246. In addition, in test [1] (setting [6]), the “ED90 (actual dose)” value was less than 10 µg. In addition, the P-RBA/G-RBA on progesterone receptor is 0.42. On progesterone receptor, the “Progestin RBA” value worked out at 61. The “McPhail Index, Left Horn (Treated)” value in test [2] (dose 20.0 μg intrauterine) was 3.8 ± 0.12; in test [2] (dose 40.0 μg intrauterine), 3.9 ± 0.12; in test [2] (dose 80.0 μg intrauterine) it was 3.8 ± 0.12.

Regarding `CC(=O)O[C@]1(C(C)=O)CC[C@H]2[C@@H]3C[C@H](C)C4=CC(=O)CCC4=C3[C@@H](c3ccc(N(C)C)cc3)C[C@@]21C` [Compound 8b, 6α-methyl-17α-acetoxy-11β-(4-N,N-dimethylaminophenyl)-19-norpregna-4,9-diene-3,20-dione], the “Glucocort. RBA” value on glucocorticoid receptor was determined as 242. Moreover, the “ED90 (actual dose)” value in test [1] (actual dose giving ≥ 90% inhibition) was 2.0 µg. Also, in test [1], the ED50 came to 0.54 µg and the “ED90 (calculated)” value was 1.9 µg. Further, at progesterone receptor, the P-RBA/G-RBA stood at 0.18 and the “Progestin RBA” value was 43. In test [4] (total oral dose 1.0 mg, N=6), the “% Inhibition” value was 12.7 ± 3.0%, the “McPhail Index” value worked out at 3.46 ± 0.12 and the “Wt of Uterus” value came out at 3.26 ± 0.34 g. In addition, in test [4] (total oral dose 5.0 mg, N=6), the “% Inhibition” value was 51.6 ± 12.2%, the “McPhail Index” value worked out at 1.92 ± 0.48 and the “Wt of Uterus” value was determined as 2.14 ± 0.22 g. Moreover, in test [4] (total oral dose 10.0 mg, N=5), the “% Inhibition” value is on record as 67.2 ± 6.1%, the “McPhail Index” value was determined as 1.30 ± 0.24 and the “Wt of Uterus” value is reported as 2.24 ± 0.27 g.

As for `CC#C[C@]1(O)CC[C@H]2[C@@H]3CCC4=CC(=O)CCC4=C3[C@@H](c3ccc(N(C)C)cc3)C[C@@]21C` [RU-486, reference compound], in test [1] (actual dose giving ≥ 90% inhibition, results variable, data from "best run"), the “ED90 (actual dose)” value was 1.0 µg. Further, in test [1] (setting [7]), the ED50 is 0.28 µg and the “ED90 (calculated)” value was 0.87 µg. For the same compound, the growth-inhibitory properties result in test [5] is “exhibits growth-inhibitory properties”. For the same compound, in the test on Cushing's syndrome (Nieman et al), the “treatment of Cushing's syndrome” value is listed as “successfully used”. Besides, the antiglucocorticoid activity entry in the test on Cushing's syndrome (in vivo) was “very significant antiglucocorticoid activity”.
